Among the data in patent US8309546B2, “Morpholinopurine derivatives” (Daiichi Sankyo Company, Limited, priority 2008, dated 2012) are GI50 and IC50 values, retold here.

Bounds are passed on as bounds.

The test system of assay [1] is human endometrial cancer cell strain AN3CA. As to the kind of experiment: Cell growth inhibition test (MTT), AN3CA. In kind it is cell-based. Particulars: AN3-CA, 72 h, 3 days culture, read-out: concentration exhibiting anti-cell effect (GI50). In short, it runs like this: (§1)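 Each cell strain is exposed to serially diluted compound for 3 days (37° C, 5% CO2), added one day after seeding at 5000 (AN3CA, HT29) or 1000 (IGROV1) cells/well. Living cells are quantified by MTT reduction over 4 h, absorbance at 540 nm, giving GI50 at 50% growth rate.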

In assay [2] the test system is human ovary cancer cell strain IGROV1. As to the kind of experiment: Cell growth inhibition test (MTT), IGROV1. In kind it is cell-based. Particulars: IGROV-1, 72 h, IGROV1, 3 days culture, read-out: concentration exhibiting anti-cell effect (GI50). An outline of the steps: as §1
In assay [3] the target is T1, human mTOR (His-tagged mTOR (1362C)) (Homo sapiens, UniProt P42345).
T1 construct: the 1362 to 2549 amino acid portion on the C terminus side of human mTOR; His tag (N); made in house
T1 sequence (P42345 1362-2549): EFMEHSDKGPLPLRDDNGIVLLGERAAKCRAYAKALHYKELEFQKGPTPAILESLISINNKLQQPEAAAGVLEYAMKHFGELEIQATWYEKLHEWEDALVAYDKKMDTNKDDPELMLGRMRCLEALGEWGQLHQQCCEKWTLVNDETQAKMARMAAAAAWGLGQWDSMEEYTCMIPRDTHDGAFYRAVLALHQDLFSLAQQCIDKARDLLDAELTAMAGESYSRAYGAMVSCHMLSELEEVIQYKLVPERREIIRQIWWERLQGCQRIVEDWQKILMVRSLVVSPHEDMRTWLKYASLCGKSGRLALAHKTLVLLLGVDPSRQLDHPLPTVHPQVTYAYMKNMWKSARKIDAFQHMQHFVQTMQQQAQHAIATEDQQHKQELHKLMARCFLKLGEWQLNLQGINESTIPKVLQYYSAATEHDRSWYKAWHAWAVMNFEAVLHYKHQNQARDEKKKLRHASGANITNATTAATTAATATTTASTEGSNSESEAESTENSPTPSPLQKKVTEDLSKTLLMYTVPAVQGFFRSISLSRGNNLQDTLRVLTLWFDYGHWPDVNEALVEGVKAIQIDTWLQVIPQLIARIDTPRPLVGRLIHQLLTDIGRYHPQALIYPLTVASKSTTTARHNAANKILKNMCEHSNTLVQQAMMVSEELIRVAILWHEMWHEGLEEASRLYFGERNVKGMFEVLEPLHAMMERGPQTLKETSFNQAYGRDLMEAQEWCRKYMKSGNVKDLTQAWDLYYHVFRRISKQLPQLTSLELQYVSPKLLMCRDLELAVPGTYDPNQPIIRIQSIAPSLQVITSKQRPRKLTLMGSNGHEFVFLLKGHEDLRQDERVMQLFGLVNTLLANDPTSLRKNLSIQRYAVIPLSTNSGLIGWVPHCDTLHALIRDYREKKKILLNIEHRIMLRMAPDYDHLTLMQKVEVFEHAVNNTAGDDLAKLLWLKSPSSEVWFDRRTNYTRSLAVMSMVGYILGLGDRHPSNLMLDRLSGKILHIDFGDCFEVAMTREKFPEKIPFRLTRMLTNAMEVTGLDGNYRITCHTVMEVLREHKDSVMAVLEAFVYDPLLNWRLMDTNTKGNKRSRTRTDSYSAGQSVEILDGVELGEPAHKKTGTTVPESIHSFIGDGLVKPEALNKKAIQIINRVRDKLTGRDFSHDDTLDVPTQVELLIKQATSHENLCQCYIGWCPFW
Kind of assay: mTOR kinase activity inhibition assay. In kind it is biochemical. The note with it: HTRF, read-out: IC50 against mTOR. In short, it runs like this: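 Crude His-tagged mTOR (aa 1362–2549) from stable HEK293 cells, with 8 μg/ml biotinylated peptide in 50 mM HEPES pH 7.5, 20 mM MnCl2; compound diluted in 20 μM ATP solution, reaction 3 h at room temperature. Phospho-peptide detected by HTRF (anti-phospho-S6K Thr389 cryptate/streptavidin-XL665, overnight at 4°C), 665/620 nm ratio. IC50 derived from curve fit of % inhibition.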
(In general: Time-resolved FRET reads energy transfer from a long-lived donor to a nearby acceptor.)

Assay [4] relates to human colon cancer cell strain HT29. Kind of assay: Cell growth inhibition test (MTT), HT29. In kind it is cell-based. Particulars: HT-29, 72 h, HT29, 3 days culture, read-out: concentration exhibiting anti-cell effect (GI50). In short, it runs like this: as §1

As a reminder, the IC50 is the concentration that inhibits the measured activity by half. Take `C[C@H](O)C(=O)N1CCN(c2nc3c(N4CCOCC4)nc(-c4cnc(N)nc4)nc3n2CC2CC2)C[C@H]1C` [Example 95, (2S)-1-{(2R)-4-[2-(2-Aminopyrimidin-5-yl)-9-(cyclopropylmethyl)-6-morpholin-4-yl-9H-purin-8-yl]-2-methylpiperazin-1-yl}-1-oxopropan-2-ol]: the GI50 in assay [1], in assay [2] and in assay [4] was at most 5 µM each time. Also, the half-maximal inhibitory concentration (IC50) in assay [3] was 10 to 30 nM.

Consider `CC(=O)N1CCN(c2nc3c(N4CCOCC4)nc(-c4cnc(N)nc4)nc3n2CC2CC2)C[C@@H]1C` [Example 96, 5-{8-[(3S)-4-Acetyl-3-methylpiperazin-1-yl]-9-(cyclopropylmethyl)-6-morpholin-4-yl-9H-purin-2-yl}pyrimidin-2-amine], for which the GI50 in assay [1], in assay [2] and in assay [4] was at most 5 µM in each case. In addition, the IC50 in assay [3] was below 10 nM.

Regarding `CC(=O)N1CCN(c2nc3c(N4CCOCC4)nc(-c4cnc(N)nc4)nc3n2CC2CC2)C[C@H]1C` [Example 97, 5-{8-[(3R)-4-Acetyl-3-methylpiperazin-1-yl]-9-(cyclopropylmethyl)-6-morpholin-4-yl-9H-purin-2-yl}pyrimidin-2-amine], the GI50 in assay [1], in assay [2] and in assay [4] was at most 5 µM in each case. Further, the IC50 in assay [3] was 10 to 30 nM.

Regarding `CC(=O)N1[C@H](C)CN(c2nc3c(N4CCOCC4)nc(-c4cnc(N)nc4)nc3n2CC2CC2)C[C@@H]1C` [Example 98, 5-{8-[4-Acetyl-cis-3,5-dimethylpiperazin-1-yl]-9-(cyclopropylmethyl)-6-morpholin-4-yl-9H-purin-2-yl}pyrimidin-2-amine], the GI50 in assay [1], in assay [2] and in assay [4] was at most 5 µM throughout. Also, the half-maximal inhibitory concentration (IC50) in assay [3] was below 10 nM.

As for `CC(=O)N1CCN(c2nc3c(N4CCOCC4)nc(-c4cnc(N)nc4)nc3n2CC(C)C)C[C@H]1C` [Example 99, 5-{8-[(3R)-4-Acetyl-3-methylpiperazin-1-yl]-9-isobutyl-6-morpholin-4-yl-9H-purin-2-yl}pyrimidin-2-amine], the GI50 in assay [1], in assay [2] and in assay [4] was at most 5 µM each time. Further, the IC50 in assay [3] fell in the range of 10 to 30 nM.

In the case of `CC(C)Cn1c(N2CCN(C=O)[C@H](C)C2)nc2c(N3CCOCC3)nc(-c3cnc(N)nc3)nc21` [Example 100, (2R)-4-[2-(2-Aminopyrimidin-5-yl)-9-isobutyl-6-morpholin-4-yl-9H-purin-8-yl]-2-methylpiperazine-1-carboaldehyde], the GI50 in assay [1], in assay [2] and in assay [4] was at most 5 µM each time. For the same compound, the IC50 in assay [3] is 10 to 30 nM.

Turning to `CC(=O)N1CCN(c2nc3c(N4CCOCC4)nc(-c4cnc(N)nc4)nc3n2CC(C)C)C[C@@H]1C` [Example 101, 5-{8-[(3S)-4-Acetyl-3-methylpiperazin-1-yl]-9-isobutyl-6-morpholin-4-yl-9H-purin-2-yl}pyrimidin-2-amine], the GI50 in assay [1], in assay [2] and in assay [4] was at most 5 µM in each case. For the same compound, the concentration for half-maximal inhibition (IC50) in assay [3] was below 10 nM.

Consider `CC(C)Cn1c(N2CCN(C=O)[C@@H](C)C2)nc2c(N3CCOCC3)nc(-c3cnc(N)nc3)nc21` [Example 102, (2S)-4-[2-(2-Aminopyrimidin-5-yl)-9-isobutyl-6-morpholin-4-yl-9H-purin-8-yl]-2-methylpiperazine-1-carboaldehyde], for which the GI50 in assay [1], in assay [2] and in assay [4] was at most 5 µM in each case. The IC50 in assay [3] is below 10 nM.

With `CC(C)Cn1c(N2CCN(C(=O)[C@H](C)O)[C@H](C)C2)nc2c(N3CCOCC3)nc(-c3cnc(N)nc3)nc21` [Example 103, (2S)-1-{(2R)-4-[2-(2-Aminopyrimidin-5-yl)-9-isobutyl-6-morpholin-4-yl-9H-purin-8-yl]-2-methylpiperazin-1-yl}-1-oxopropan-2-ol], the GI50 in assay [1], in assay [2] and in assay [4] was at most 5 µM in each case. The concentration for half-maximal inhibition (IC50) in assay [3] fell in the range of 10 to 30 nM.

Turning to `CC(C)Cn1c(N2CCN(C(=O)[C@H](C)O)[C@@H](C)C2)nc2c(N3CCOCC3)nc(-c3cnc(N)nc3)nc21` [Example 104, (2S)-1-{(2S)-4-[2-(2-Aminopyrimidin-5-yl)-9-isobutyl-6-morpholin-4-yl-9H-purin-8-yl]-2-methylpiperazin-1-yl}-1-oxopropan-2-ol], the GI50 in assay [1], in assay [2] and in assay [4] was at most 5 µM in each case. For the same compound, the IC50 in assay [3] lay within 10 to 30 nM.

With `CNc1ncc(-c2nc(N3CCOCC3)c3nc(N4CCN(S(C)(=O)=O)[C@@H](C)C4)n(CC(F)(F)F)c3n2)cn1` [Example 105, N-Methyl-5-{8-[(3S)-3-methyl-4-(methylsulfonyl)piperazin-1-yl]-6-morpholin-4-yl-9-(2,2,2-trifluoroethyl)-9H-purin-2-yl}pyrimidin-2-amine], the GI50 in assay [1], in assay [2] and in assay [4] was at most 5 µM in each case. The IC50 in assay [3] was below 10 nM.

In the case of `CNc1ncc(-c2nc(N3CCOCC3)c3nc(N4CCN(S(C)(=O)=O)[C@H](C)C4)n(CC(F)(F)F)c3n2)cn1` [Example 106, N-Methyl-5-{8-[(3R)-3-methyl-4-(methylsulfonyl)piperazin-1-yl]-6-morpholin-4-yl-9-(2,2,2-trifluoroethyl)-9H-purin-2-yl}pyrimidin-2-amine], the GI50 in assay [1], in assay [2] and in assay [4] was at most 5 µM throughout. Further, in assay [3], the IC50 is below 10 nM.

Regarding `CNc1ncc(-c2nc(N3CCOCC3)c3nc(N4CCN(C(C)=O)[C@@H](C)C4)n(CC(F)(F)F)c3n2)cn1` [Example 107, 5-{8-[(3S)-4-Acetyl-3-methylpiperazin-1-yl]-6-morpholin-4-yl-9-(2,2,2-trifluoroethyl)-9H-purin-2-yl}-N-methylpyrimidin-2-amine], the GI50 in assay [1], in assay [2] and in assay [4] was at most 5 µM in each case. The half-inhibitory concentration (IC50) in assay [3] is below 10 nM.

Regarding `CNc1ncc(-c2nc(N3CCOCC3)c3nc(N4CCN(C(C)=O)[C@H](C)C4)n(CC(F)(F)F)c3n2)cn1` [Example 108, 5-{8-[(3R)-4-Acetyl-3-methylpiperazin-1-yl]-6-morpholin-4-yl-9-(2,2,2-trifluoroethyl)-9H-purin-2-yl}-N-methylpyrimidin-2-amine], the GI50 in assay [1], in assay [2] and in assay [4] was at most 5 µM throughout. Besides, the IC50 in assay [3] is below 10 nM.

For `C[C@H](O)C(=O)N1CCN(c2nc3c(N4CCOCC4)nc(-c4cnc(N)nc4)nc3n2CC(F)(F)F)C[C@@H]1C` [Example 109, (2S)-1-{(2S)-4-[2-(2-Aminopyrimidin-5-yl)-6-morpholin-4-yl-9-(2,2,2-trifluoroethyl)-9H-purin-8-yl]-2-methylpiperazin-1-yl}-1-oxopropan-2-ol], the GI50 in assay [1], in assay [2] and in assay [4] was at most 5 µM each time. Besides, in assay [3], the IC50 was below 10 nM.

On to `C[C@H](O)C(=O)N1CCN(c2nc3c(N4CCOCC4)nc(-c4cnc(N)nc4)nc3n2CC(F)(F)F)C[C@H]1C` [Example 110, (2S)-1-{(2R)-4-[2-(2-Aminopyrimidin-5-yl)-6-morpholin-4-yl-9-(2,2,2-trifluoroethyl)-9H-purin-8-yl]-2-methylpiperazin-1-yl}-1-oxopropan-2-ol], for which the GI50 in assay [1], in assay [2] and in assay [4] was at most 5 µM each time. Also, the IC50 in assay [3] was below 10 nM.

For `C[C@H]1CN(c2nc3c(N4CCOCC4)nc(-c4cnc(N)nc4)nc3n2CC(F)(F)F)CCN1C=O` [Example 111, (2S)-4-[2-(2-Aminopyrimidin-5-yl)-6-morpholin-4-yl-9-(2,2,2-trifluoroethyl)-9H-purin-8-yl]-2-methylpiperazine-1-carboaldehyde], the GI50 in assay [1], in assay [2] and in assay [4] was at most 5 µM each time. Also, the 50% inhibitory concentration (IC50) in assay [3] was below 10 nM.

In the case of `C[C@@H]1CN(c2nc3c(N4CCOCC4)nc(-c4cnc(N)nc4)nc3n2CC(F)(F)F)CCN1C=O` [Example 112, (2R)-4-[2-(2-Aminopyrimidin-5-yl)-6-morpholin-4-yl-9-(2,2,2-trifluoroethyl)-9H-purin-8-yl]-2-methylpiperazine-1-carboaldehyde], the GI50 in assay [1], in assay [2] and in assay [4] was at most 5 µM in each case. For the same compound, the IC50 in assay [3] is below 10 nM.

On to `C[C@@H](O)C(=O)N1CCN(c2nc3c(N4CCOCC4)nc(-c4cnc(N)nc4)nc3n2CC2CC2)C[C@@H]1C` [Example 113, (2R)-1-{(2S)-4-[2-(2-Aminopyrimidin-5-yl)-9-(cyclopropylmethyl)-6-morpholin-4-yl-9H-purin-8-yl]-2-methylpiperazin-1-yl}-1-oxopropan-2-ol], for which the GI50 in assay [1], in assay [2] and in assay [4] was at most 5 µM throughout. For the same compound, the concentration for half-maximal inhibition (IC50) in assay [3] is below 10 nM.
